From ChEMBL document CHEMBL6083280, “De Novo Discovery of a Noncovalent Cell-Penetrating Bicyclic Peptide Inhibitor Targeting SARS-CoV-2 Main Protease” (J Med Chem, 2024)
pEC50, pIC50: −log10 of the molar value. Calls of active or inactive are those of the source. The calls are words filed in the database; no cut-off is given here. Positions of bridges follow the written chain, without caps; N, C: chain ends. Residues, ends and D or L forms follow the SMILES beside them.

Experiments:
[1] = tested on: SARS-CoV-2; experiment: Antiviral activity against SARS-CoV-2 infected in human Caco-2 cells assessed as inhibition of viral infection preincubated for 1 hr followed by viral infection measured after 48 hrs by CQ1 confocal quantitative image cytometer analysis; format: functional, organism-based; details: for pEC50: Severe acute respiratory syndrome coronavirus 2, Caco-2; for Activity: Severe acute respiratory syndrome coronavirus 2, time 49.0 hrs
[2] = target: Replicase polyprotein 1ab (Severe acute respiratory syndrome coronavirus 2, UniProt P0DTD1); experiment: Inhibition of N-terminal his-tagged SARS-CoV-2 Main protease expressed in Escherichia coli BL21 (DE3) using Dabcyl-TSAVLWSGFRICMK-Edans as substrate preincubated for 10 mins by microplate reader analysis

Row | Compound | pEC50 [1] | pIC50 [2] | Activity [1]
1 | CC(C)[C@@H]1NC(=O)[C@@H](Cc2ccc(O)cc2)NC(=O)CC[C@@H](C(=O)NCC(N)=O)NC(=O)[C@@H]2CCCN2C(=O)[C@@H]2CCCN2C(=O)[C@@H]2CSCc3cccc(c3)CSC[C@H](NC1=O)C(=O)N[C@@H](Cc1ccccc1)C(=O)N[C@@H](Cc1c[nH]cn1)C(=O)N[C@@H]([C@@H](C)O)C(=O)N[C@@H]([C@@H](C)O)C(=O)N[C@@H]([C@@H](C)O)C(=O)N1CCC[C@H]1C(=O)N[C@@H](Cc1ccccc1)C(=O)N2 | < 4.00 | 6.36 | –
2 | CC[C@H](C)[C@@H]1NC(=O)[C@@H](Cc2ccc(O)cc2)NC(=O)CSC[C@@H](C(N)=O)NC(=O)[C@H](C(C)C)NC(=O)[C@H](CC(C)C)NC(=O)[C@@H]2CCCN2C(=O)[C@H](Cc2ccccc2)NC(=O)[C@H]([C@@H](C)O)NC(=O)[C@H](CCC(N)=O)NC1=O | – | 5.85 | inactive
3 | CC[C@H](C)[C@@H]1NC(=O)[C@@H](Cc2ccc(O)cc2)NC(=O)CSC[C@@H](C(N)=O)NC(=O)[C@H](C(C)C)NC(=O)[C@H](CC(C)C)NC(=O)[C@@H]2CCCN2C(=O)[C@H](Cc2ccccc2)NC(=O)[C@H]([C@@H](C)O)NC(=O)[C@H](Cc2c[nH]cn2)NC1=O | – | 5.85 | inactive
4 | CC(C)C[C@@H]1NC(=O)[C@H](Cc2ccccc2)NC(=O)[C@@H]2CCCN2C(=O)[C@H](C)NC(=O)[C@H]([C@@H](C)O)NC(=O)[C@H]([C@@H](C)O)NC(=O)[C@H](Cc2c[nH]cn2)NC(=O)[C@H](Cc2ccccc2)NC(=O)[C@H]([C@@H](C)O)NC(=O)[C@H](C(C)C)NC(=O)[C@@H](Cc2ccc(O)cc2)NC(=O)CSC[C@@H](C(=O)NCC(N)=O)NC(=O)[C@@H]2CCCN2C(=O)[C@@H]2CCCN2C1=O | – | 6.66 | –
5 | CC[C@H](C)[C@@H]1NC(=O)[C@H](Cc2c[nH]cn2)NC(=O)[C@H](CO)NC(=O)[C@H](Cc2ccccc2)NC(=O)[C@H](Cc2ccc(O)cc2)NC(=O)[C@H](CCC(N)=O)NC(=O)[C@H]([C@@H](C)O)NC(=O)[C@H](Cc2ccc(O)cc2)NC(=O)CSC[C@@H](C(=O)N[C@@H](CO)C(=O)N[C@@H](CO)C(=O)N[C@@H](CCCNC(=N)N)C(=O)N[C@@H](CO)C(=O)NCC(N)=O)NC1=O ({CH2CO}-YTQYFSHICSSRSG-NH2; thioether N-9) | – | < 4.00 | –
6 | CC(C)C[C@@H]1NC(=O)[C@H](Cc2ccccc2)NC(=O)[C@@H]2CCCN2C(=O)[C@H]([C@@H](C)O)NC(=O)[C@H]([C@@H](C)O)NC(=O)[C@H](C)NC(=O)[C@H](Cc2c[nH]cn2)NC(=O)[C@H](Cc2ccccc2)NC(=O)[C@H]([C@@H](C)O)NC(=O)[C@H](C(C)C)NC(=O)[C@@H](Cc2ccc(O)cc2)NC(=O)CSC[C@@H](C(=O)NCC(N)=O)NC(=O)[C@@H]2CCCN2C(=O)[C@@H]2CCCN2C1=O | – | 6.29 | –
7 | CC(C)C[C@@H]1NC(=O)[C@H](Cc2ccccc2)NC(=O)[C@@H]2CCCN2C(=O)[C@H]([C@@H](C)O)NC(=O)[C@H]([C@@H](C)O)NC(=O)[C@H]([C@@H](C)O)NC(=O)[C@H](Cc2c[nH]cn2)NC(=O)[C@H](Cc2ccccc2)NC(=O)[C@H]([C@@H](C)O)NC(=O)[C@H](C)NC(=O)[C@@H](Cc2ccc(O)cc2)NC(=O)CSC[C@@H](C(=O)NCC(N)=O)NC(=O)[C@@H]2CCCN2C(=O)[C@@H]2CCCN2C1=O | – | < 5.00 | –
8 | CC(C)C[C@@H]1NC(=O)[C@H](Cc2ccccc2)NC(=O)[C@@H]2CCCN2C(=O)[C@H]([C@@H](C)O)NC(=O)[C@H]([C@@H](C)O)NC(=O)[C@H]([C@@H](C)O)NC(=O)[C@H](Cc2c[nH]cn2)NC(=O)[C@H](Cc2cccc(F)c2)NC(=O)[C@H]([C@@H](C)O)NC(=O)[C@H](C(C)C)NC(=O)[C@@H](Cc2ccc(O)cc2)NC(=O)CSC[C@@H](C(=O)NCC(N)=O)NC(=O)[C@@H]2CCCN2C(=O)[C@@H]2CCCN2C1=O | < 4.00 | 6.60 | –
9 | CC(C)C[C@@H]1NC(=O)[C@H](C)NC(=O)[C@@H]2CCCN2C(=O)[C@H]([C@@H](C)O)NC(=O)[C@H]([C@@H](C)O)NC(=O)[C@H]([C@@H](C)O)NC(=O)[C@H](Cc2c[nH]cn2)NC(=O)[C@H](Cc2ccccc2)NC(=O)[C@H]([C@@H](C)O)NC(=O)[C@H](C(C)C)NC(=O)[C@@H](Cc2ccc(O)cc2)NC(=O)CSC[C@@H](C(=O)NCC(N)=O)NC(=O)[C@@H]2CCCN2C(=O)[C@@H]2CCCN2C1=O | – | 5.24 | –
10 | CC(C)[C@@H]1NC(=O)[C@@H](Cc2ccc(O)cc2)NC(=O)CSC[C@@H](C(=O)NCC(N)=O)NC(=O)[C@@H]2CCCN2C(=O)[C@@H]2CCCN2C(=O)[C@H](C)NC(=O)[C@H](Cc2ccccc2)NC(=O)[C@@H]2CCCN2C(=O)[C@H]([C@@H](C)O)NC(=O)[C@H]([C@@H](C)O)NC(=O)[C@H]([C@@H](C)O)NC(=O)[C@H](Cc2c[nH]cn2)NC(=O)[C@H](Cc2ccccc2)NC(=O)[C@H]([C@@H](C)O)NC1=O | – | 6.43 | –
11 | CC(C)C[C@@H]1NC(=O)[C@H](Cc2ccccc2)NC(=O)[C@@H]2CCCN2C(=O)[C@H]([C@@H](C)O)NC(=O)[C@H]([C@@H](C)O)NC(=O)[C@H]([C@@H](C)O)NC(=O)[C@H](Cc2c[nH]cn2)NC(=O)[C@H](C)NC(=O)[C@H]([C@@H](C)O)NC(=O)[C@H](C(C)C)NC(=O)[C@@H](Cc2ccc(O)cc2)NC(=O)CSC[C@@H](C(=O)NCC(N)=O)NC(=O)[C@@H]2CCCN2C(=O)[C@@H]2CCCN2C1=O | – | < 5.00 | –
12 | CC(C)C[C@@H]1NC(=O)[C@H](Cc2ccccc2)NC(=O)[C@@H]2CCCN2C(=O)[C@H]([C@@H](C)O)NC(=O)[C@H]([C@@H](C)O)NC(=O)[C@H]([C@@H](C)O)NC(=O)[C@H](Cc2c[nH]cn2)NC(=O)[C@H](Cc2ccccc2)NC(=O)[C@H](C)NC(=O)[C@H](C(C)C)NC(=O)[C@@H](Cc2ccc(O)cc2)NC(=O)CSC[C@@H](C(=O)NCC(N)=O)NC(=O)[C@@H]2CCCN2C(=O)[C@@H]2CCCN2C1=O | – | 5.78 | –
13 | CC(C)C[C@@H]1NC(=O)[C@H](Cc2ccccc2)NC(=O)[C@H](C)NC(=O)[C@H]([C@@H](C)O)NC(=O)[C@H]([C@@H](C)O)NC(=O)[C@H]([C@@H](C)O)NC(=O)[C@H](Cc2c[nH]cn2)NC(=O)[C@H](Cc2ccccc2)NC(=O)[C@H]([C@@H](C)O)NC(=O)[C@H](C(C)C)NC(=O)[C@@H](Cc2ccc(O)cc2)NC(=O)CSC[C@@H](C(=O)NCC(N)=O)NC(=O)[C@@H]2CCCN2C(=O)[C@@H]2CCCN2C1=O | – | 6.41 | –
14 | CC(C)C[C@@H]1NC(=O)[C@H](Cc2ccccc2)NC(=O)[C@@H]2CCCN2C(=O)[C@H]([C@@H](C)O)NC(=O)[C@H]([C@@H](C)O)NC(=O)[C@H]([C@@H](C)O)NC(=O)[C@H](C)NC(=O)[C@H](Cc2ccccc2)NC(=O)[C@H]([C@@H](C)O)NC(=O)[C@H](C(C)C)NC(=O)[C@@H](Cc2ccc(O)cc2)NC(=O)CSC[C@@H](C(=O)NCC(N)=O)NC(=O)[C@@H]2CCCN2C(=O)[C@@H]2CCCN2C1=O | – | < 5.00 | –
15 | CC(C)C[C@@H]1NC(=O)[C@H](Cc2ccccc2)NC(=O)[C@@H]2CCCN2C(=O)[C@H]([C@@H](C)O)NC(=O)[C@H]([C@@H](C)O)NC(=O)[C@H]([C@@H](C)O)NC(=O)[C@H](Cc2c[nH]cn2)NC(=O)[C@H](Cc2ccccc2)NC(=O)[C@H]([C@@H](C)O)NC(=O)[C@H](C(C)C)NC(=O)[C@@H](Cc2ccc(O)cc2)NC(=O)CSC[C@@H](C(=O)NCC(N)=O)NC(=O)[C@H](C)NC(=O)[C@@H]2CCCN2C1=O | – | 5.71 | –
16 | CC[C@H](C)[C@@H]1NC(=O)[C@@H](Cc2ccc(O)cc2)NC(=O)CSC[C@@H](C(N)=O)NC(=O)[C@H]([C@@H](C)CC)NC(=O)[C@@H]2CCCN2C(=O)[C@@H]2CCCN2C(=O)[C@H](Cc2ccccc2)NC(=O)[C@H](CO)NC(=O)[C@H](CCC(N)=O)NC1=O | – | 5.85 | inactive
17 | CC(C)C[C@@H]1NC(=O)[C@H](Cc2ccccc2)NC(=O)[C@@H]2CCCN2C(=O)[C@H]([C@@H](C)O)NC(=O)[C@H]([C@@H](C)O)NC(=O)[C@H]([C@@H](C)O)NC(=O)[C@H](Cc2c[nH]cn2)NC(=O)[C@H](Cc2ccccc2)NC(=O)[C@H]([C@@H](C)O)NC(=O)[C@H](C(C)C)NC(=O)[C@@H](Cc2ccc(O)cc2)NC(=O)CSC[C@@H](C(=O)NCC(N)=O)NC(=O)[C@@H]2CCCN2C(=O)[C@H](C)NC1=O | – | 6.21 | –
18 | CC(C)C[C@@H]1NC(=O)[C@H](Cc2ccccc2)NC(=O)[C@@H]2CCCN2C(=O)[C@H]([C@@H](C)O)NC(=O)[C@H]([C@@H](C)O)NC(=O)[C@H]([C@@H](C)O)NC(=O)[C@H](Cc2c[nH]cn2)NC(=O)[C@H](Cc2ccccc2)NC(=O)[C@H]([C@@H](C)O)NC(=O)[C@H](C(C)C)NC(=O)[C@@H](Cc2ccc(O)cc2)NC(=O)CC[C@@H](C(=O)NCC(N)=O)NC(=O)[C@@H]2CCCN2C(=O)[C@@H]2CCCN2C1=O | < 4.00 | 6.82 | –
19 | CC(C)C[C@@H]1NC(=O)[C@H](Cc2ccccc2)NC(=O)[C@@H]2CCCN2C(=O)[C@H]([C@@H](C)O)NC(=O)[C@H](C)NC(=O)[C@H]([C@@H](C)O)NC(=O)[C@H](Cc2c[nH]cn2)NC(=O)[C@H](Cc2ccccc2)NC(=O)[C@H]([C@@H](C)O)NC(=O)[C@H](C(C)C)NC(=O)[C@@H](Cc2ccc(O)cc2)NC(=O)CSC[C@@H](C(=O)NCC(N)=O)NC(=O)[C@@H]2CCCN2C(=O)[C@@H]2CCCN2C1=O | – | 6.70 | –
20 | CC(C)[C@@H]1NC(=O)[C@@H](Cc2ccc(O)cc2)NC(=O)CC[C@@H](C(N)=O)NC(=O)[C@@H]2CCCN2C(=O)[C@@H]2CCCN2C(=O)[C@@H]2CSc3c(F)c(F)c(c(F)c3F)SC[C@H](NC1=O)C(=O)N[C@@H](Cc1ccccc1)C(=O)N[C@@H](Cc1c[nH]cn1)C(=O)N[C@@H]([C@@H](C)O)C(=O)N[C@@H]([C@@H](C)O)C(=O)N[C@@H]([C@@H](C)O)C(=O)N1CCC[C@H]1C(=O)N[C@@H](Cc1ccccc1)C(=O)N2 | < 4.00 | 4.78 | –
